Read-outs that look alike come from different tables or passages of the source. Where only a bound is given, the exact number is not on record here.

Data set [1] deals with Tubulin, derived from pig brain. Conditions: for effect on the polymerization of tubulin (in words): increase in the latent period, decrease in the rate of polymerization, lower turbidity in the stationary state; for IC50: read-out: concentration which inhibits by 50% the polymerization of tubulin, tubulin 8.5 μM, 37° C., 30 minutes, product 0.8 to 16 μM. The text has this:
The assembly of tubulin into microtubules results in an increase in the turbidity observed at 350 nm with the aid of spectrophotometer.

For data set [2], the system named is murine leukaemia cell lines P388. To be noted: p388 leukaemia cells.
The test system of the next data set is resistant lines P388/DOX. Conditions: p388 leukaemia cells.

`C=CC1CC(Cc2ccc(OC)c(O)c2)C2C(=O)C=CC(=C)C12` (stereo not drawn) [formula (I), 3-(3-hydroxy-4-methoxybenzyl)-7-methylene-1-vinyl-2,3,3a,4,7,7a-hexahydroinden-4-one]: in data set [1], the “effect on the polymerization of tubulin (in words)” value is reported as “inhibition of the polymerization of tubulin” and the IC50 is less than 5 nM. Besides, the IC50 in data set [1] (listed as 3-(3-hydroxy-4-methoxybenzyl)-7-methylene-1-vinyl-2,3,3a,4,7,7a-hexahydroinden-4) is less than 1 nM.

On to `C=CC1CC(Cc2ccc(OC)c(O)c2)c2c(O)ccc(C)c21` (stereo not drawn) [formula (II), 3-(3-hydroxy-4-methoxybenzyl)-4-hydroxy-7-methyl-1-vinylindan], for which the cytotoxicity entry (in data set [2]; in the data set with resistant lines P388/DOX) was “less than 1 μg/cm^3” each time. In data set [1], the “effect on the polymerization of tubulin (in words)” value was “inhibition of the polymerization of tubulin”.

The values are drawn from patent publication US5716994A, “Antitumor and antileukaemic substances, their preparation and pharmaceutical compositions containing them” (Rhone-Poulenc Rorer S.A., priority 1994, dated 1998).
